Counter-ions that a name gives are not always drawn.
Assays:
[1] = rat, in vivo, sc, 5 mg/kg, 4 h
Method: For the bupivacaine hydrochloride liposome prepared in Preparation Example 12 and bupivacaine hydrochloride used alone, a drug dynamics test was conducted. Subcutaneous administration into a back part of a rat was conducted in a dose, in terms of the amount of bupivacaine hydrochloride, as set forth in Table 7. After lapses of 1, 24, 72, 120, and 168 hours from the administration of the bupivacaine hydrochloride liposome composition, and after lapses of 0.5, 4, and 24 hours from the administration of the bupivacaine hydrochloride used alone, back region subcutaneous tissue in the administration site was sampled and subjected to a homogenizing treatment. Subsequently, the homogenized solution was treated, the resultant sample solution was subjected to high performance liquid chromatography determination (UV-visible absorptiometer; measurement wavelength 210 nm), and the concentration of bupivacaine hydrochloride remaining in the back region subcutaneous tissue in the administration site was determined. The retention rate of bupivacaine hydrochloride (used alone) in the administration site was lowered to below 1% in four hours after the administration. […] On the other hand, the bupivacaine hydrochloride liposome gave a profile of sustained release from the administration site, and about 35% of bupivacaine hydrochloride remained on the seventh day from the administration.

[2] = Donepezil Liposome Drug Dynamics 2 (plasma concentration of donepezil hydrochloride); conditions: rat, SC 5 mg/kg
Method: (Em) of 385 nm was quantified by high performance liquid chromatography using a fluorophotometer.
Furthermore, for comparison, donepezil used alone was administered subcutaneously into a back part of a rat in a dose of 5 mg/kg. For the donepezil used alone, blood was sampled from a tail vein after lapses of 0.5, 1, 5, 10, 30, 120, 480, 1440, and 2880 minutes from the administration. For the liposome compositions, on the other hand, blood was sampled from a tail vein after lapses of 1, 3, 4, 8, 24, 48, 72, 96, 120, 144, 168, 192, 216, 264, 288, 312, and 336 hours from the administration.

SMILES | retention rate of bupivacaine hydrochloride in the administration site [1] | concentration in blood after 48 hours [2] | time of maximum concentration in blood [2]
CCCCN1CCCCC1C(=O)Nc1c(C)cccc1C (stereo not drawn) [bupivacaine hydrochloride, Bupivacaine hydrochloride] | below 1% |  | 
COc1cc2c(cc1OC)C(=O)C(CC1CCN(Cc3ccccc3)CC1)C2 (stereo not drawn) [donepezil hydrochloride, Donepezil hydrochloride] |  | below the detection limit | 0.5 h
